Columns and labels:
JAK1 = biological target: T1, JAK1 (Homo sapiens, UniProt P23458); test: JAK Family Selectivity Assay: JAK1 vs JAK2 binding affinity; conditions: Kd JAK1 over Kd JAK2
T1 construct: made in house; host or cells: T7 phage in BL21-derived E. coli or HEK-293 cells
Method: Provided compounds are evaluated for selectivity by comparing their JAK2 binding affinity (Kd) in the above JAK2 Binding Assay with their binding affinity (Kd) for one or more other kinases. Binding affinity for other kinases is determined as follows: Kinase-tagged T7 phage strains are prepared in an E. coli host derived from the BL21 strain. E. coli are grown to log-phase and infected with T7 phage and incubated with shaking at 32° C. until lysis. The lysates are centrifuged and filtered to remove cell debris. The remaining kinases are produced in HEK-293 cells and subsequently tagged with DNA for qPCR detection. Streptavidin-coated magnetic beads are treated with biotinylated small molecule ligands for 30 minutes at room temperature to generate affinity resins for kinase assays. The liganded beads are blocked with excess biotin and washed with blocking buffer (SeaBlock (Pierce), 1% BSA, 0.05% Tween 20, 1 mM DTT) to remove unbound ligand and to reduce non-specific binding. Binding reactions are assembled by combining kinases, liganded affinity beads, and test compounds in 1× binding buffer (20% SeaBlock, 0.17×PBS, 0.05% Tween 20, 6 mM DTT). Test compounds are prepared as 111× stocks in 100% DMSO. Kds are determined using an 11-point 3-fold compound dilution series with three DMSO control points. All compounds for Kd measurements are distributed by acoustic transfer (non-contact dispensing) in 100% DMSO. The compounds are then diluted directly into the assays such that the final concentration of DMSO is 0.9%. All reactions are performed in polypropylene 384-well plate. Each has a final volume of 0.02 ml. The assay plates are incubated at room temperature with shaking for 1 hour and the affinity beads are washed with wash buffer (1×PBS, 0.05% Tween 20). The beads are then re-suspended in elution buffer (1× PBS, 0.05% Tween 20, 0.5 μM non-biotinylated affinity ligand) and incubated at room temperature with shaking for 30 minutes. The kinase concentration in the eluates is measured by qPCR. […] In some embodiments, provided compounds may be JAK2-selective over one or more of the following kinases: JAK1, JAK3, and Tyk2.

[1] = Hepatocyte Stability Assay, rat hepatocytes; type: in vitro ADME; conditions: cryopreserved hepatocytes, read-out: Rat Heps CLint
Method: 10 mM stock solutions of test compound and positive control are prepared in DMSO. Stock solutions are diluted to 100 μM by combining 198 μL of 50% acetonitrile/50% water and 2 μL of 10 mM stock solution. Verapamil is used as positive control in the assay. Vials of cryopreserved hepatocytes are thawed in a 37° C. water bath with gently shaking. The contents are poured into the 50 mL thawing medium conical tube. Vials are centrifuged at 100 g for 10 minutes at room temperature. Thawing medium is aspirated and hepatocytes are re-suspended with serum-free incubation medium to yield ˜1.5×10^6 cells/mL. Cell viability and density are counted using a Trypan Blue exclusion, and then cells are diluted with serum-free incubation medium to a working cell density of 0.5×10^6 viable cells/mL. A portion of the hepatocytes at 0.5×10^6 viable cells/mL are boiled for 5 min prior to adding to the plate as negative control to eliminate the enzymatic activity so that little or no substrate turnover should be observed. Aliquots of 198 μL hepatocytes are dispensed into each well of a 96-well non-coated plate. The plate is placed in the incubator for approximately 10 minutes. Aliquots of 2 μL of the 100 μM test compound and 2 μL positive control are added into respective wells of a non-coated 96-well plate to start the reaction. The final concentration of test compound is 1 μM. This assay is performed in duplicate. The plate is incubated in the incubator for the designed time points. 25 μL of contents are transferred and mixed with 6 volumes (150 μL) of cold acetonitrile with internal standard (100 nM alprazolam, 200 nM labetalol, 200 nM caffeine and 200 nM diclofenac) to terminate the reaction at time points of 0, 15, 30, 60, 90 and 120 minutes. Samples are centrifuged for 25 minutes at 3,220 g and aliquots of 150 μL of the supernatants are used for LC-MS/MS analysis.

T1 sequence (P23458 whole entry): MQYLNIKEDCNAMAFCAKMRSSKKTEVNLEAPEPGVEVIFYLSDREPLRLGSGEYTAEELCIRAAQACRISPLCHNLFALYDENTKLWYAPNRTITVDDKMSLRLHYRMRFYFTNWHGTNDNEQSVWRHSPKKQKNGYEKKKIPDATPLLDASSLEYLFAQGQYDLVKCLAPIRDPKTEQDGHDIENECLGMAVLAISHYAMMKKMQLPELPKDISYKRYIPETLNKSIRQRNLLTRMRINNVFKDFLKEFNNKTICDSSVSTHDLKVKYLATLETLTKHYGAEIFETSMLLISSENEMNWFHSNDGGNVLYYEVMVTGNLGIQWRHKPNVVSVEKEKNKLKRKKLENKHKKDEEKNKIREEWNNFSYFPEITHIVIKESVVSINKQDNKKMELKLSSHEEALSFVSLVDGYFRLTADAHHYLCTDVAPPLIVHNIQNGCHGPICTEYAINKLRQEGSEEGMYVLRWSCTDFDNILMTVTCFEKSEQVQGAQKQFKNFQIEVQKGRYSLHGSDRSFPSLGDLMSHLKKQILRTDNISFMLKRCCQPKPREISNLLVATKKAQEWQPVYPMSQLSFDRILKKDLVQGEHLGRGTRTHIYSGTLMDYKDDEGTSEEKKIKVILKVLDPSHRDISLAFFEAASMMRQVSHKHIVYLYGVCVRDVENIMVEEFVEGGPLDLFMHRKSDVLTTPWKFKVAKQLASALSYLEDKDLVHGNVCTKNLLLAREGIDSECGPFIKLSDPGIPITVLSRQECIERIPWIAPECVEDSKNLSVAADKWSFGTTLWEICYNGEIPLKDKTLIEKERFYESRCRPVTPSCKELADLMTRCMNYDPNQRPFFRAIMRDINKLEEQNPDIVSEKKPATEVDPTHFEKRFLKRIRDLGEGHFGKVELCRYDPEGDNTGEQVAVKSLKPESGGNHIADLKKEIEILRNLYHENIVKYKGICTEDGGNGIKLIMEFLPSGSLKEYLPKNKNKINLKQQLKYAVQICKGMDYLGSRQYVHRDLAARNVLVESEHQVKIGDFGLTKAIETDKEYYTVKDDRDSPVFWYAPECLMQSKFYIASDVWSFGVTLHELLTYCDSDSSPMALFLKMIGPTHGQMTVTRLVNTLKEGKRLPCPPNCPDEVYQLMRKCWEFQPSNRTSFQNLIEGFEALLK

Row | Structure (SMILES) | CLint scaled at 1 μM [1] | JAK1/JAK2 Kd/Kd ratio (JAK1)
1 | COC(=O)Nc1cc(Oc2cnc3nc(Nc4cc(C(F)(F)F)cn(C)c4=O)n(C)c3c2C#N)ccn1 [Example I-3, Methyl (4-((7-cyano-1-methyl-2-((1-methyl-2-oxo-5-(trifluoromethyl)-1,2-dihydropyridin-3-yl)amino)-1H-imidazo[4,5-b]pyridin-6-yl)oxy)pyridin-2-yl)carbamate] | < 17 mL/min/kg | A (Kd/Kd ratio ≥1000)
2 | CN(C)C(=O)Nc1cc(Oc2cnc3nc(Nc4cc(C(F)(F)F)cn(C)c4=O)n(C)c3c2C#N)ccn1 [Example I-4, 3-(4-((7-cyano-1-methyl-2-((1-methyl-2-oxo-5-(trifluoromethyl)-1,2-dihydropyridin-3-yl)amino)-1H-imidazo[4,5-b]pyridin-6-yl)oxy)pyridin-2-yl)-1,1-dimethylurea] | 17 to 35 mL/min/kg | B (Kd/Kd ratio <1000 and ≥300)
3 | COCC(=O)Nc1cc(Oc2cnc3nc(Nc4cc(C(F)(F)F)cn(C)c4=O)n(C)c3c2C#N)ccn1 [Example I-79, N-(4-((7-cyano-1-methyl-2-((1-methyl-2-oxo-5-(trifluoromethyl)-1,2-dihydropyridin-3-yl)amino)-1H-imidazo[4,5-b]pyridin-6-yl)oxy)pyridin-2-yl)-2-methoxyacetamide] | 17 to 35 mL/min/kg | C (Kd/Kd ratio <300 and ≥100)
4 | COCCOC(=O)Nc1cc(Oc2cnc3nc(Nc4cc5n(n4)CCC54CCC4)n(C)c3c2C#N)ccn1 [Example I-62, 2-methoxyethyl(4-((7-cyano-2-((5′,6′-dihydrospiro[cyclobutane-1,4′-pyrrolo[1,2-b]pyrazol]-2′-yl)amino)-1-methyl-1H-imidazo[4,5-b]pyridin-6-yl)oxy)pyridin-2-yl)carbamate] | 17 to 35 mL/min/kg | B (Kd/Kd ratio <1000 and ≥300)
5 | CO[C@@H]1CCN(C(=O)Nc2cc(Oc3cnc4nc(Nc5cc6n(n5)CCC65CCC5)n(C)c4c3C#N)ccn2)C1 [Example I-60, (R)-N-(4-((7-cyano-2-((5′,6′-dihydrospiro[cyclobutane-1,4′-pyrrolo[1,2-b]pyrazol]-2′-yl)amino)-1-methyl-1H-imidazo[4,5-b]pyridin-6-yl)oxy)pyridin-2-yl)-3-methoxypyrrolidine-1-carboxamide] | 17 to 35 mL/min/kg | B (Kd/Kd ratio <1000 and ≥300)
6 | COC1CN(C(=O)Nc2cc(Oc3cnc4nc(Nc5cc6n(n5)CCC65CCC5)n(C)c4c3C#N)ccn2)C1 [Example I-61, N-(4-((7-cyano-2-((5′,6′-dihydrospiro[cyclobutane-1,4′-pyrrolo[1,2-b]pyrazol]-2′-yl)amino)-1-methyl-1H-imidazo[4,5-b]pyridin-6-yl)oxy)pyridin-2-yl)-3-methoxyazetidine carboxamide] | 35 to 45 mL/min/kg | A (Kd/Kd ratio ≥1000)
7 | COC(=O)Nc1cc(Oc2cnc3nc(Nc4cc5n(n4)CCC54CCC4)n(C)c3c2C#N)ccn1 [Example I-57, methyl(4-((7-cyano-2-((5′,6′-dihydrospiro[cyclobutane-1,4′-pyrrolo[1,2-b]pyrazol]-2′-yl)amino)-1-methyl-1H-imidazo[4,5-b]pyridin-6-yl)oxy)pyridin-2-yl)carbamate] | 35 to 45 mL/min/kg | 
8 | CN(C)C(=O)Nc1cc(Oc2cnc3nc(Nc4cc5n(n4)CCC54CCC4)n(C)c3c2C#N)ccn1 [Example I-56, 3-(4-((7-cyano-2-((5′,6′-dihydrospiro[cyclobutane-1,4′-pyrrolo[1,2-b]pyrazol]-2′-yl)amino)-1-methyl-1H-imidazo[4,5-b]pyridin-6-yl)oxy)pyridin-2-yl)-1,1-dimethylurea] | 17 to 35 mL/min/kg | 

Continued, in another order:

Row | CLint scaled at 1 μM [1] | Structure (SMILES) | JAK1/JAK2 Kd/Kd ratio (JAK1)
9 | 17 to 35 mL/min/kg | Cn1cc(C(F)(F)F)cc(Nc2nc3ncc(Oc4ccnc(NC(=O)N5CCC5)c4)c(C#N)c3n2C)c1=O [Example I-7, N-(4-((7-cyano-1-methyl-2-((1-methyl-2-oxo-5-(trifluoromethyl)-1,2-dihydropyridin-3-yl)amino)-1H-imidazo[4,5-b]pyridin-6-yl)oxy)pyridin-2-yl)azetidine-1-carboxamide] | A (Kd/Kd ratio ≥1000)
10 | < 17 mL/min/kg | Cn1c(Nc2cc3n(n2)CCC32CCC2)nc2ncc(Oc3ccnc(NC(=O)C4CC4)c3)c(C#N)c21 [Example I-122, N-(4-((7-cyano-2-((5′,6′-dihydrospiro[cyclobutane-1,4′-pyrrolo[1,2-b]pyrazol]-2′-yl)amino)-1-methyl-1H-imidazo[4,5-b]pyridin-6-yl)oxy)pyridin-2-yl)cyclopropanecarboxamide] | D (Kd/Kd ratio <100)
11 | 35 to 45 mL/min/kg | CC(=O)Nc1cc(Oc2cnc3nc(Nc4cc5n(n4)CCCC54CC4)n(C)c3c2C#N)ccn1 [Example I-114, N-(4-((7-cyano-2-((6′,7′-dihydro-5′H-spiro[cyclopropane-1,4′-pyrazolo[1,5-a]pyridin]-2′-yl)amino)-1-methyl-1H-imidazo[4,5-b]pyridin-6-yl)oxy)pyridin-2-yl)acetamide] | 
12 | 35 to 45 mL/min/kg | CCN1CCN(Cc2ccc(Nc3nc4ccc(Oc5ccnc(NC(C)=O)c5)cc4n3C)cc2C(F)(F)F)CC1 [Example R-1, reference compound] | C (Kd/Kd ratio <300 and ≥100)
13 | < 17 mL/min/kg | CO[C@H]1CCN(C(=O)Nc2cc(Oc3cnc4nc(Nc5cc(C(F)(F)F)cn(C)c5=O)n(C)c4c3C#N)ccn2)C1 [Example I-14, (S)-N-(4-((7-cyano-1-methyl-2-((1-methyl-2-oxo-5-(trifluoromethyl)-1,2-dihydropyridin-3-yl)amino)-1H-imidazo[4,5-b]pyridin-6-yl)oxy)pyridin-2-yl)-3-methoxypyrrolidine-1-carboxamide] | A (Kd/Kd ratio ≥1000)
14 | 17 to 35 mL/min/kg | Cn1cc(C(F)(F)F)cc(Nc2nc3ncc(Oc4ccnc(NC(=O)O[C@@H]5CCOC5)c4)c(C#N)c3n2C)c1=O [Example I-18, (R)-Tetrahydrofuran-3-yl(4-((7-cyano-1-methyl-2-((1-methyl-2-oxo-5-(trifluoromethyl)-1,2-dihydropyridin-3-yl)amino)-1H-imidazo[4,5-b]pyridin-6-yl)oxy)pyridin-2-yl)carbamate] | C (Kd/Kd ratio <300 and ≥100)
15 | < 17 mL/min/kg | CC(=O)Nc1cc(Oc2cnc3nc(Nc4cc5n(n4)CCOCC5(C)C)n(C)c3c2C#N)ccn1 [Example I-118, N-(4-((7-cyano-2-((4,4-dimethyl-4,5,7,8-tetrahydropyrazolo[1,5-d][1,4]oxazepin-2-yl)amino)-1-methyl-1H-imidazo[4,5-b]pyridin-6-yl)oxy)pyridin-2-yl)acetamide] | 
16 | < 17 mL/min/kg | COCC(=O)Nc1cc(Oc2cnc3nc(Nc4cc(C(F)(F)F)cn(C)c4=O)n(C)c3c2Cl)ccn1 [Example I-75, N-(4-((7-chloro-1-methyl-2-((1-methyl-2-oxo-5-(trifluoromethyl)-1,2-dihydropyridin-3-yl)amino)-1H-imidazo[4,5-b]pyridin-6-yl)oxy)pyridin-2-yl)-2-methoxyacetamide] | A (Kd/Kd ratio ≥1000)
17 | < 17 mL/min/kg | COC1CN(C(=O)Nc2cc(Oc3cnc4nc(Nc5cc6n(n5)CCCC6(F)F)n(C)c4c3C#N)ccn2)C1 [Example I-26, N-(4-((7-cyano-2-((4,4-difluoro-4,5,6,7-tetrahydropyrazolo[1,5-a]pyridin-2-yl)amino)-1-methyl-1H-imidazo[4,5-b]pyridin-6-yl)oxy)pyridin-2-yl)-3-methoxyazetidine-1-carboxamide] | 

Source: patent US11970494B2, “6-heteroaryloxy benzimidazoles and azabenzimidazoles as JAK2 inhibitors” (Ajax Therapeutics, Inc., priority 2021, dated 2024)
